This is an account of results in PubChem BioAssay (NCI).

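Test compounds were applied to cells in 96-well plates for 48 hours at 5 doses. TGI: total growth inhibition.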

Test systems include UACC-62 melanoma; UACC-257 melanoma; CAKI-1 renal; SF-295 CNS; SF-539 CNS; HT29 colon; U251 CNS; NCI-H522 lung; LOX IMVI melanoma; HOP-92 NSCLC.
Holding throughout (assay): NCI-60 cell line screen, 48 h

For the molecule `O=[N+]([O-])c1cc(C=NC23CC4CC(CC(C4)C2)C3)ccc1Cl`, the TGI with UACC-62 melanoma was 20.9 µM; with UACC-257 melanoma it was 39.6 µM; in the test with CAKI-1 renal, 18.7 µM; in the test on SF-295 CNS it was 96.9 µM; with SF-539 CNS, 55.7 µM; with HT29 colon, 39.8 µM. Besides, the TGI was 41.6 µM in the test with U251 CNS, 32.7 µM in the test with NCI-H522 lung, 36.9 µM in the test with LOX IMVI melanoma and 60.5 µM with HOP-92 NSCLC.

`Nn1c(-c2ccccc2)n[nH]c1=O`: the TGI in the test with UACC-62 melanoma, in the test with UACC-257 melanoma, in the test on CAKI-1 renal, with SF-295 CNS, with SF-539 CNS and with HT29 colon was greater than 100 µM in each case. Besides, the TGI in the test on U251 CNS, with NCI-H522 lung, in the test with LOX IMVI melanoma and in the test on HOP-92 NSCLC was greater than 100 µM in each case.

On to `CC(C)=CCC[C@@H](C)c1c(O)c(O)c(C)c2nccnc12`, for which the TGI with UACC-62 melanoma was 50.5 µM; in the test on UACC-257 melanoma it was greater than 100 µM; in the test on CAKI-1 renal, greater than 90.3 µM; in the test with SF-295 CNS it was greater than 71.2 µM; in the test with SF-539 CNS, 60.2 µM; in the test on HT29 colon, greater than 65.6 µM. Also, the TGI with U251 CNS was greater than 100 µM; in the test on NCI-H522 lung, 23.6 µM; in the test with LOX IMVI melanoma it was greater than 100 µM; in the test on HOP-92 NSCLC, greater than 94.2 µM.

Take `Cc1ccc(NC(=O)c2ccc(OP(=O)(O)Nc3ccc(C)cc3)cc2)cc1`: the TGI in the test on UACC-62 melanoma, in the test on UACC-257 melanoma, in the test on CAKI-1 renal, in the test with SF-295 CNS, in the test with SF-539 CNS and in the test with HT29 colon was greater than 100 µM throughout. The TGI in the test with U251 CNS, with NCI-H522 lung, with LOX IMVI melanoma and with HOP-92 NSCLC was greater than 100 µM each time.

As to `Cc1ccc(NC(=O)CC2Sc3ccccc3NC2=O)cc1C` (stereo not given), the TGI with UACC-62 melanoma, with UACC-257 melanoma, in the test on CAKI-1 renal, with SF-295 CNS, in the test on SF-539 CNS and with HT29 colon was greater than 100 µM throughout. For the same molecule, the TGI in the test on U251 CNS was greater than 100 µM; in the test with NCI-H522 lung, greater than 100 µM; in the test with LOX IMVI melanoma it was greater than 100 µM; in the test on HOP-92 NSCLC it was 95.8 µM.

Take `COC(=O)C1=C(C(=O)OC)SC(=C2SCSC3=C2SC(C(=O)OC)=C(C(=O)OC)C32SC3=C(CCCC3)S2)S1`: the TGI in the test with UACC-62 melanoma, in the test on UACC-257 melanoma, in the test on CAKI-1 renal, in the test with SF-295 CNS, in the test with SF-539 CNS and in the test on HT29 colon was greater than 100 µM in each case. The TGI in the test with U251 CNS, with NCI-H522 lung, in the test on LOX IMVI melanoma and with HOP-92 NSCLC was greater than 100 µM throughout.

Take `NC1(c2cc3ccccc3s2)CCCC1`: the TGI in the test on UACC-62 melanoma is greater than 100 µM; in the test on UACC-257 melanoma, 81.2 µM; with CAKI-1 renal, greater than 100 µM; in the test on SF-295 CNS, greater than 100 µM; with SF-539 CNS, 45.3 µM; in the test with HT29 colon, greater than 100 µM. In addition, the TGI with U251 CNS, in the test with NCI-H522 lung, in the test on LOX IMVI melanoma and in the test on HOP-92 NSCLC was greater than 100 µM in each case.

On to `Cc1ccnc(NS(=O)(=O)c2ccc(N=[N+]=[N-])cc2)n1`, for which the TGI with UACC-62 melanoma, in the test with UACC-257 melanoma, with CAKI-1 renal, in the test with SF-295 CNS, with SF-539 CNS and in the test on HT29 colon was greater than 100 µM in each case. The TGI with U251 CNS, in the test on NCI-H522 lung, in the test on LOX IMVI melanoma and in the test on HOP-92 NSCLC was greater than 100 µM throughout.

Regarding `CC(=O)c1c2c(c3ccccc3c1O)O[C@@H]1OCC[C@H]21`, the TGI with UACC-62 melanoma, in the test with UACC-257 melanoma, with CAKI-1 renal, in the test on SF-295 CNS, in the test with SF-539 CNS and with HT29 colon was greater than 100 µM each time. In addition, the TGI in the test on U251 CNS, with NCI-H522 lung, with LOX IMVI melanoma and in the test on HOP-92 NSCLC was greater than 100 µM in each case.

On to `CCCCCC1=CC(=O)C1(Cl)Cl`, for which the TGI with UACC-62 melanoma came to 32.2 µM; in the test with UACC-257 melanoma, 33.3 µM; in the test on CAKI-1 renal, 23.3 µM; in the test on SF-295 CNS, 62.1 µM; with SF-539 CNS, 38.9 µM; in the test on HT29 colon, 36.7 µM. The TGI amounted to 25.1 µM in the test with U251 CNS, 15.8 µM in the test with NCI-H522 lung, 21.2 µM with LOX IMVI melanoma and 63.3 µM in the test on HOP-92 NSCLC.

Take `CC(=O)N1C(C(=O)NC2CCCCC2)CSC1c1ccccc1` (stereo not given): the TGI with UACC-62 melanoma, in the test with UACC-257 melanoma, in the test on CAKI-1 renal, in the test on SF-295 CNS, with SF-539 CNS and in the test on HT29 colon was greater than 100 µM each time. Also, the TGI with U251 CNS, with NCI-H522 lung, in the test on LOX IMVI melanoma and in the test with HOP-92 NSCLC was greater than 100 µM in each case.

For the molecule `N#CC(NCc1cccc(CNC(C#N)c2ccccc2)c1)c1ccccc1` (stereo not given), the TGI was greater than 100 µM with UACC-62 melanoma; greater than 100 µM with UACC-257 melanoma; greater than 100 µM in the test with CAKI-1 renal; greater than 100 µM in the test with SF-295 CNS; 26.1 µM in the test on SF-539 CNS; 30.8 µM with HT29 colon. Also, the TGI with U251 CNS was greater than 100 µM; in the test on NCI-H522 lung, greater than 100 µM; in the test with LOX IMVI melanoma it was 28.9 µM; in the test with HOP-92 NSCLC, 89.8 µM.

Turning to `Cc1cc(C)nc(NS(=O)(=O)c2ccc(NC(=O)c3ccc4nc5ccccc5c(Nc5ccc(S(N)(=O)=O)cc5)c4c3)cc2)n1`, the TGI in the test with UACC-62 melanoma, in the test with UACC-257 melanoma, in the test on CAKI-1 renal, with SF-295 CNS, in the test on SF-539 CNS and in the test with HT29 colon was greater than 100 µM in each case. Moreover, the TGI with U251 CNS, in the test with NCI-H522 lung, in the test with LOX IMVI melanoma and in the test with HOP-92 NSCLC was greater than 100 µM each time.
